Results published in patent US10597369B2, “Monosulfonic phenyltetrazole compounds with applications” (HANGZHOU JENNIFER BIOTECH CO., LTD., priority 2015, dated 2020).
Where a name gives a salt, the structure may show the parent alone.

What was measured:
[1] = Reagent stability assays (stored tetrazolium detection reagent tested with NADH, response at 450 nm); format: physicochemical; conditions: for lost activity: detection reagent after storage at 4° C. for a month, tested using 100 μM NADH in 50 mM Tris-Cl (pH 8); for changes in activity on storage: storage at −20° C. for up to a year, tested monthly in NADH titration
Method: The tetrazolium detection reagent (WST-8 or EZMTT) was stored at 4 and −20° C., respectively. Once a month, the stored tetrazolium detection reagent was tested using 100 μM NADH in 50 mM Tris-Cl (pH 8) and the response was measured at 450 nm.
For the stability test, the WST-8, EZMTT detection reagents were stored at 4° C. and −20° C. up to a year. Both reagents were tested in NADH titration every month for their activities.

Row | Compound | melting point [°C] | lost activity [1] [%] | changes in activity on storage [1]
1 | COc1cc([N+](=O)[O-])ccc1-[n+]1nc(-c2ccccc2S(=O)(=O)O)nn1-c1ccc([N+](=O)[O-])cc1 (as salt: sodium) [EZMTT, 2-(4-nitrophenyl)-3-(2-methoxy-4-nitrophenyl)-5 (2-sulfonic phenyl)-2H-tetrazolium monosodium salt] | 105 | – | –
2 | COc1cc([N+](=O)[O-])ccc1-[n+]1nc(-c2ccccc2S(=O)(=O)O)nn1-c1ccc([N+](=O)[O-])cc1 [EZMTT, 2-(4-nitrophenyl)-3-(2-methoxy-4-nitrophenyl)-5 (2-sulfonic phenyl)-2H-tetrazolium monosodium salt] | – | 25 | essentially no changes in activity
3 | COc1cc([N+](=O)[O-])ccc1-[n+]1nc(-c2ccc(S(=O)(=O)[O-])cc2S(=O)(=O)[O-])nn1-c1ccc([N+](=O)[O-])cc1.[Na+] [WST-8, 2-(3-(2-methoxy-4-nitrophenyl)-2-(4-nitrophenyl)-2H-tetrazolium)benzene disulfonate sodium salt, reference compound] | – | 60 | essentially no changes in activity
